Results: the supplement of paper PMC11451515

Experiments:
Assay in all cases: AUC of viability dose-response curve (% viability x log10 dose units); higher = less sensitive
Conditions in all cases: 48 h
NOMO1 = system: NOMO1
In short: (§1)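 Medium-adapted leukemia cells in 1536-well plates, at 500 or 1000 cells/well, were incubated for 48 h at 37°C with library compounds in DMSO at 11 threefold doses from 47 μM to 0.79 nM. CellTiter-Glo One luminescence normalised per plate to DMSO and cell-free wells was fitted with a four-parameter log-logistic model over log10 doses. Area under the curve was integrated from this fit by trapezoidal rule, with curves beyond full viability scaled and failed quality-control curves removed.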

P12-Ichikawa = system: P12-Ichikawa
In short: as §1

SEM cells = system: SEM cells
In short: as §1

[1] = RPMI 5 mM glucose + 10% dialyzed FBS

## CCN1C[C@]2(OC(=O)c3ccccc3NC(C)=O)CC[C@H](OC)[C@@]34[C@@H]2C[C@@H]([C@@H]13)[C@@]1(O)C[C@H](OC)[C@H]2C[C@@H]4[C@]1(O)[C@H]2OC
NOMO1; HPLM + 10% dialyzed FBS
  AUC of viability dose-response curve: 477
NOMO1; RPMI 5 mM glucose + 10% FBS
  AUC of viability dose-response curve: 465
NOMO1; [1]
  AUC of viability dose-response curve: 477
P12-Ichikawa; HPLM + 10% dialyzed FBS
  AUC of viability dose-response curve: 473
P12-Ichikawa; RPMI 5 mM glucose + 10% FBS
  AUC of viability dose-response curve: 475
P12-Ichikawa; [1]
  AUC of viability dose-response curve: 469
SEM cells; HPLM + 10% dialyzed FBS
  AUC of viability dose-response curve: 461
SEM cells; RPMI 5 mM glucose + 10% FBS
  AUC of viability dose-response curve: 439
SEM cells; [1]
  AUC of viability dose-response curve: 430

## O=C1NC(O)CCN1[C@@H]1O[C@H](CO)[C@@H](O)[C@H]1O (stereo partly specified)
NOMO1; HPLM + 10% dialyzed FBS
  AUC of viability dose-response curve: 435
NOMO1; RPMI 5 mM glucose + 10% FBS
  AUC of viability dose-response curve: 459
NOMO1; [1]
  AUC of viability dose-response curve: 457
P12-Ichikawa; HPLM + 10% dialyzed FBS
  AUC of viability dose-response curve: 456
P12-Ichikawa; RPMI 5 mM glucose + 10% FBS
  AUC of viability dose-response curve: 437
P12-Ichikawa; [1]
  AUC of viability dose-response curve: 467
SEM cells; HPLM + 10% dialyzed FBS
  AUC of viability dose-response curve: 463
SEM cells; RPMI 5 mM glucose + 10% FBS
  AUC of viability dose-response curve: 443
SEM cells; [1]
  AUC of viability dose-response curve: 465

## CC(C)NCC(O)c1ccc(NS(C)(=O)=O)cc1 (stereo unspecified)
NOMO1; HPLM + 10% dialyzed FBS
  AUC of viability dose-response curve: 460
NOMO1; RPMI 5 mM glucose + 10% FBS
  AUC of viability dose-response curve: 447
NOMO1; [1]
  AUC of viability dose-response curve: 461
P12-Ichikawa; HPLM + 10% dialyzed FBS
  AUC of viability dose-response curve: 464
P12-Ichikawa; RPMI 5 mM glucose + 10% FBS
  AUC of viability dose-response curve: 472
P12-Ichikawa; [1]
  AUC of viability dose-response curve: 457
SEM cells; HPLM + 10% dialyzed FBS
  AUC of viability dose-response curve: 466
SEM cells; RPMI 5 mM glucose + 10% FBS
  AUC of viability dose-response curve: 447
SEM cells; [1]
  AUC of viability dose-response curve: 468

## CN(C)CCCNC(=O)c1ccc(-c2cc(O)c3ncccc3c2)cc1
NOMO1; HPLM + 10% dialyzed FBS
  AUC of viability dose-response curve: 458
NOMO1; RPMI 5 mM glucose + 10% FBS
  AUC of viability dose-response curve: 434
NOMO1; [1]
  AUC of viability dose-response curve: 463
P12-Ichikawa; HPLM + 10% dialyzed FBS
  AUC of viability dose-response curve: 467
P12-Ichikawa; RPMI 5 mM glucose + 10% FBS
  AUC of viability dose-response curve: 459
P12-Ichikawa; [1]
  AUC of viability dose-response curve: 450
SEM cells; HPLM + 10% dialyzed FBS
  AUC of viability dose-response curve: 443
SEM cells; RPMI 5 mM glucose + 10% FBS
  AUC of viability dose-response curve: 442
SEM cells; [1]
  AUC of viability dose-response curve: 445

## CC(C)c1ccccc1Cc1cc(C(=O)Nc2ccc([S+](=O)([O-])c3ccccc3C(C)(C)C)cc2)c(O)c(O)c1O
NOMO1; HPLM + 10% dialyzed FBS
  AUC of viability dose-response curve: 408
NOMO1; RPMI 5 mM glucose + 10% FBS
  AUC of viability dose-response curve: 467
NOMO1; [1]
  AUC of viability dose-response curve: 464
P12-Ichikawa; HPLM + 10% dialyzed FBS
  AUC of viability dose-response curve: 451
P12-Ichikawa; RPMI 5 mM glucose + 10% FBS
  AUC of viability dose-response curve: 460
P12-Ichikawa; [1]
  AUC of viability dose-response curve: 457
SEM cells; HPLM + 10% dialyzed FBS
  AUC of viability dose-response curve: 449
SEM cells; RPMI 5 mM glucose + 10% FBS
  AUC of viability dose-response curve: 426
SEM cells; [1]
  AUC of viability dose-response curve: 422

## COC[C@H]1OC(=O)C2=COC3=C2[C@@]1(C)\C4=C(\[C@@H]5CC[C@H](O)[C@@]5(C)C[C@H]4OC(C)=O)C3=O
NOMO1; HPLM + 10% dialyzed FBS
  AUC of viability dose-response curve: 440
NOMO1; RPMI 5 mM glucose + 10% FBS
  AUC of viability dose-response curve: 466
NOMO1; [1]
  AUC of viability dose-response curve: 458

## O=[N+]([O-])c1cnc(Sc2nnc(O)n2-c2ccc3c(c2)OCCO3)s1
NOMO1; HPLM + 10% dialyzed FBS
  AUC of viability dose-response curve: 376
NOMO1; RPMI 5 mM glucose + 10% FBS
  AUC of viability dose-response curve: 353
NOMO1; [1]
  AUC of viability dose-response curve: 375
P12-Ichikawa; HPLM + 10% dialyzed FBS
  AUC of viability dose-response curve: 390
P12-Ichikawa; RPMI 5 mM glucose + 10% FBS
  AUC of viability dose-response curve: 356
P12-Ichikawa; [1]
  AUC of viability dose-response curve: 337
SEM cells; HPLM + 10% dialyzed FBS
  AUC of viability dose-response curve: 341
SEM cells; RPMI 5 mM glucose + 10% FBS
  AUC of viability dose-response curve: 342
SEM cells; [1]
  AUC of viability dose-response curve: 331

## C[C@@H]1CC[C@@]2(OC1)OC1CC3C4CC=C5CC(O)CCC5(C)C4CCC3(C)C1[C@@H]2C (stereo partly specified)
NOMO1; HPLM + 10% dialyzed FBS
  AUC of viability dose-response curve: 428
NOMO1; RPMI 5 mM glucose + 10% FBS
  AUC of viability dose-response curve: 402
NOMO1; [1]
  AUC of viability dose-response curve: 407
P12-Ichikawa; HPLM + 10% dialyzed FBS
  AUC of viability dose-response curve: 419
P12-Ichikawa; RPMI 5 mM glucose + 10% FBS
  AUC of viability dose-response curve: 453
P12-Ichikawa; [1]
  AUC of viability dose-response curve: 444
SEM cells; HPLM + 10% dialyzed FBS
  AUC of viability dose-response curve: 444
SEM cells; RPMI 5 mM glucose + 10% FBS
  AUC of viability dose-response curve: 394
SEM cells; [1]
  AUC of viability dose-response curve: 415
